The subject of experiment [1] is PMA-induced release of endogenous IL-6R from human THP-1 monocytic cells. As to the kind of experiment: ELISA-based IL-6R release assay, PMA-induced, THP-1 cells. It counts as cell-based. Conditions: PMA 25 ng/ml, 1 hour, recombinant murine antibodies and IgG at 1 μg/ml, Batimastat at 10 μM. As to the method: In brief, on day 1, Nunc black MaxiSorp® 96-well plates (Thermo Fisher Scientific, USA) were coated for 7 hours with 100 μl per well of mouse anti-human IL-6R capture antibody (provided as part of the DuoSet ELISA kit) at 2 μg/ml TBS at room temperature. Capture antibody solution was removed and MaxiSorp® plates were blocked with 300 μl per well of TBS, 1% BSA at room temperature for 1.5 hours. Meanwhile, 40,000 THP-1 (American Type Culture Collection, USA) cells in 80 μl of normal growth medium were seeded in each well of Greiner CELLSTAR V-bottom 96-well plates (Thermo Fisher Scientific, USA) and pre-incubated with 20 μl per well of standard growth medium supplemented with Batimastat (BB94, Abcam, UK) at 50 μM as positive control (for a final concentration of 10 μM in the resulting 100 μl sample volume), mouse IgG antibody (Thermo Fisher Scientific, USA) at 5 μg/ml as isotype control (for a final concentration of 1 μg/ml in the resulting 100 μl sample volume) or antibodies of the invention at 5 μg/ml (for a final concentration of 1 μg/ml in the resulting 100 μl sample volume) at 37° C., 5% CO2 for 30 minutes. […] Using an infinite M1000 (Tecan Group, Switzerland) microplate reader, the fluorescence of each well was collected at an excitation wavelength of 435 nm and an emission wavelength of 555 nm.

Experiment [2] concerns PMA-induced release of endogenous HB-EGF from human THP-1 monocytic cells. The experiment can be described thus: ELISA-based HB-EGF release assay, PMA-induced, THP-1 cells. It counts as cell-based. Conditions: PMA 25 ng/ml, 6 hours, murine (m) and chimeric (ch) antibodies and IgG at 3 μg/ml, Batimastat at 10 μM. As to the method: In brief, on day 1, Nunc black MaxiSorp® 96-well plates (Thermo Fisher Scientific, USA) were coated for 7 hours with 100 μl per well of rat anti-human HB-EGF capture antibody (provided as part of the DuoSet ELISA kit) at 2 μg/ml TBS at room temperature. Capture antibody solution was removed and MaxiSorp® plates were blocked with 300 μl per well of TBS, 1% BSA at room temperature for 3 hours. […]
Following another round of 4 times washing with 350 μl TBS-T (Carl Roth, Germany) per well on a 96-head plate washer (Tecan Group, Switzerland) and careful removal of all buffer traces after the fourth cycle, 100 μl AttoPhos substrate solution (Promega, USA) per well was added for incubation in the dark at room temperature for 1 hour. Using an infinite M1000 (Tecan Group, Switzerland) microplate reader, the fluorescence of each well was collected at an excitation wavelength of 435 nm and an emission wavelength of 555 nm.

This passage reports inhibition results from patent publication US20240287172A1, “PROTEIN BINDERS TO IRHOM2 EPITOPES” (SCIRHOM GMBH, priority 2019, published 2024).

In the case of `CNC(=O)[C@H](Cc1ccccc1)NC(=O)[C@H](CC(C)C)[C@H](CSc1cccs1)C(=O)NO` [Batimastat], the inhibition at 10 µM in experiment [1] turned out to be 88.6%; in experiment [2], 98.9%.
